What was measured:
[1] = system: NTS1; conditions: cited from earlier work
[2] = target: NTS1-GW5 (Rattus norvegicus, UniProt P20789, A86L/E166A/F358A/G215A/L310A/V360A); assay: Competition of [3H]NT binding by SR48692, NTS1-GW5
[3] = system: NTS1; conditions: cited from earlier work; remark: listed apart in the source

Chain of NTS1-GW5 (P20789 43-396 A86L/E166A/G215A/L310A/F358A/V360A): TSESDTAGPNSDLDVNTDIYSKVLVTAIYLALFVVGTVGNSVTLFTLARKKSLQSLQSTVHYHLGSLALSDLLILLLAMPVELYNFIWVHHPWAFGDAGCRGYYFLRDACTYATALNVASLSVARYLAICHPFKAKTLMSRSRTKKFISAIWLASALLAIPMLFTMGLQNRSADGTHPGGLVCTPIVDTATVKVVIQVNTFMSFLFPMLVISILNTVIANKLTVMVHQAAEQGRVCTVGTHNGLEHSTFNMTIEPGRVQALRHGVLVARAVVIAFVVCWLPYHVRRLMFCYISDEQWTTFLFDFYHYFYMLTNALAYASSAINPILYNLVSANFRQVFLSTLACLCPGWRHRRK

## Arg-Arg-Pro-Tyr-Ile-Leu [NT8-13]
[1]
  efficacy compared to full-length NT: higher potency and efficacy
  potency compared to full-length NT: higher potency

## COc1cccc(OC)c1-c1cc(C(=O)NC2(C(=O)O)C3CC4CC(C3)CC2C4)nn1-c1ccnc2cc(Cl)ccc12 (stereo not shown) [SR48692]
[2]
  apparent affinity for SR48692 compared to wild-type: lower

## KIPYIL [neuromedin N]
[3]
  binding to NTS1: binds

From article PMC3482300 (Nature, 2012)
